The target in assay [1] is T1, recombinant active human PAI-1 (Homo sapiens (Human), UniProt P05121). The experiment in a line: pH dependence of PAI-1 inhibition, fluorogenic uPA (or tPA) assay. In kind it is biochemical. Particulars: for PAI-1 inhibitory efficacy (in words): pH 7.5 (FIG. 8), additional experiments; for effect of pH on PAI-1 inhibition (in words): pH 6.5 to 8.5.
For assay [2], the target named is T1, recombinant active human PAI-1. The experiment in a line: Fluorometric IC50 plate assay (PAI-1 inhibition of uPA, Z-Gly-Gly-Arg-AMC). It counts as biochemical. Particulars: in vitro, PAI-1 1 nM, uPA 2.5 nM, pH 7.8, 10% DMSO; ND = not detected, e.g. no inhibition.
The next assay has as its target PAI-1 (Homo sapiens (Human), UniProt P05121). The experiment in a line: Surface plasmon resonance, loss of PAI-1 binding to immobilized anhydrotrypsin. Particulars: PAI-1 2 nM preincubated with compound, SPR; read-out: Apparent KD (nM) ± SEM.
In a further assay the target is active mouse PAI-1 (Mus musculus (Mouse), UniProt P22777). The experiment in a line: Ex vivo plasma Luminex assay, mouse plasma spiked with active mouse PAI-1. It counts as biochemical. Particulars: mouse plasma spiked with active mouse PAI-1 3-4 ng/mL.
Sequence of active mouse PAI-1 (P22777 23-402): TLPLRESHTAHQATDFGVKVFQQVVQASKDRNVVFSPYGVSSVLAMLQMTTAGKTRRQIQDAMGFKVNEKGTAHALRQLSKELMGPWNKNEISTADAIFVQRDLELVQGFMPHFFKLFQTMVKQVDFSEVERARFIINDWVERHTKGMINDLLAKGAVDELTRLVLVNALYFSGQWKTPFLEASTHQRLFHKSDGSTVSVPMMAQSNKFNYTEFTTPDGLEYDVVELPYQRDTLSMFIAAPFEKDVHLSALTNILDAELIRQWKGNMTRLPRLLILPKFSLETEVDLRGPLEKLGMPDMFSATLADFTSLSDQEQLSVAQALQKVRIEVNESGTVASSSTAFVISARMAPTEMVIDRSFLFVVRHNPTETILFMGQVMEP
In assay [3] the target is T1, recombinant active human PAI-1. The experiment in a line: High throughput uPA chromogenic screen for PAI-1 inactivators. In kind it is biochemical. Particulars: 10 μM compound; hit = more than 3 standard deviations above control.
For assay [4] the target is unchanged. The experiment in a line: Chromogenic uPA assay of PAI-1 inhibition (pGlu-Gly-Arg pNA). It counts as biochemical.
Assay [5] shares this target. Description: β-trypsin screening assay for PAI-1 inhibitors.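 Note: fluorogenic readout with PAI-1 and β-trypsin at 10:1 molar ratio, untreated PAI-1 wells set as 100% PAI-1 activity and β-trypsin alone as 0%.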 Particulars: 10 μM compound; hit = more than 3 standard deviations above control. In kind it is biochemical.

Where a SMILES comes first, the peptide text is derived from it. [ ]: non-standard residue; d: D form. The star is where a group is joined. Tyr(3-NO2) = N[C@@H](Cc1ccc(O)c([N+](=O)[O-])c1)C(=O)O; Boc = CC(C)(C)OC(=O)*

T1 sequence (P05121 24-402): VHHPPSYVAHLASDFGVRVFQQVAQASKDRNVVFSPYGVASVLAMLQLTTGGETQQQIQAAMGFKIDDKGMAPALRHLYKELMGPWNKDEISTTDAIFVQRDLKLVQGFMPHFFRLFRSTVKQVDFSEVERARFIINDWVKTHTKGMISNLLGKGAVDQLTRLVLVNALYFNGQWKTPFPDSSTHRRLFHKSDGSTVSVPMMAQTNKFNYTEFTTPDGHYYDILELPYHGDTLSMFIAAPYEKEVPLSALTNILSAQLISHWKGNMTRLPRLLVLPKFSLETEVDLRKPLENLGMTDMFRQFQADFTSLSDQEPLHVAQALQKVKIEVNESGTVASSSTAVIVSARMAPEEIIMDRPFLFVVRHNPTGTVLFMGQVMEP
Sequence of PAI-1 (P05121 24-402): as above

As to `O=C(OC[C@H]1O[C@@H](OC(=O)c2cc(O)c(O)c(O)c2)[C@H](OC(=O)c2cc(O)c(O)c(O)c2)[C@@H](OC(=O)c2cc(O)c(O)c(O)c2)[C@H]1OC(=O)c1cc(O)c(O)c(O)c1)c1cc(O)c(O)c(O)c1` [CDE-004], the “PAI-1 inhibitory efficacy (in words)” value in assay [1] was “effective PAI-1 inhibitors”.

Regarding `O=C(OC[C@H]1O[C@@H](OC(=O)c2cc(OCc3ccccc3)c(OCc3ccccc3)c(OCc3ccccc3)c2)[C@H](OC(=O)c2cc(OCc3ccccc3)c(OCc3ccccc3)c(OCc3ccccc3)c2)[C@@H](OC(=O)c2cc(OCc3ccccc3)c(OCc3ccccc3)c(OCc3ccccc3)c2)[C@H]1OC(=O)c1cc(OCc2ccccc2)c(OCc2ccccc2)c(OCc2ccccc2)c1)c1cc(OCc2ccccc2)c(OCc2ccccc2)c(OCc2ccccc2)c1` [CDE-006], the “PAI-1 inhibitory efficacy (in words)” value in assay [1] is given as “not inhibitory”.

With `O=C(OC[C@H]1O[C@H](OC(=O)c2cc(OCc3ccccc3)c(OCc3ccccc3)c(OCc3ccccc3)c2)[C@H](OC(=O)c2cc(OCc3ccccc3)c(OCc3ccccc3)c(OCc3ccccc3)c2)[C@@H](OC(=O)c2cc(OCc3ccccc3)c(OCc3ccccc3)c(OCc3ccccc3)c2)[C@H]1OC(=O)c1cc(OCc2ccccc2)c(OCc2ccccc2)c(OCc2ccccc2)c1)c1cc(OCc2ccccc2)c(OCc2ccccc2)c(OCc2ccccc2)c1` [CDE-007], the “PAI-1 inhibitory efficacy (in words)” value in assay [1] was “not inhibitory”.

For `O=C(OCCOCCOC(=O)c1cc(O)c(O)c(O)c1)c1cc(O)c(O)c(O)c1` [CDE-009], in assay [1], the “PAI-1 inhibitory efficacy (in words)” value is listed as “effective PAI-1 inhibitors”. Moreover, the IC50 in assay [2] came to 49.3 µM.

Turning to `O=C(OCCOCCOCCOCCOC(=O)c1cc(O)c(O)c(O)c1)c1cc(O)c(O)c(O)c1` [CDE-011], in assay [1], the “PAI-1 inhibitory efficacy (in words)” value is given as “effective PAI-1 inhibitors”. In assay [2], the IC50 was found to be 338 µM.

In the case of `O=C(OCCOCCOCCOC(=O)c1cc(O)c(O)c(O)c1)c1cc(O)c(O)c(O)c1` [CDE-012], the “PAI-1 inhibitory efficacy (in words)” value in assay [1] is listed as “effective PAI-1 inhibitors”. In addition, the IC50 in assay [2] turned out to be 196 µM.

Take `O=C(OCCCOC(=O)c1cc(O)c(O)c(O)c1)c1cc(O)c(O)c(O)c1` [CDE-013]: in assay [1], the “PAI-1 inhibitory efficacy (in words)” value was “effective PAI-1 inhibitors”. For the same compound, the IC50 in assay [2] is 7.85 µM.

With `O=S(=O)(NCCNS(=O)(=O)c1ccc(O)c(O)c1)c1ccc(O)c(O)c1` [CDE-021], in assay [1], the “effect of pH on PAI-1 inhibition (in words)” value is listed as “increased with increasing pH” and the “PAI-1 inhibitory efficacy (in words)” value was “effective inhibitors of PAI-1”. The IC50 in assay [2] is 450 µM.

For `CC(C)(C)OC(=O)N[C@@H](Cc1ccc(O)c([N+](=O)[O-])c1)C(=O)O` [CDE-028], in assay [1], the “effect of pH on PAI-1 inhibition (in words)” value was “increased with increasing pH” and the “PAI-1 inhibitory efficacy (in words)” value is “effective inhibitors of PAI-1”. Besides, in assay [2], the 50% inhibitory concentration (IC50) was determined as 386 µM.

As to `COc1ccc(S(=O)(=O)NCCNS(=O)(=O)c2ccc(OC)c(OC)c2)cc1OC` [CDE-029], in assay [1], the “effect of pH on PAI-1 inhibition (in words)” value is listed as “increased with increasing pH” and the “PAI-1 inhibitory efficacy (in words)” value is listed as “effective inhibitors of PAI-1”.

As for `CCN(CCN(CC)S(=O)(=O)c1ccc(OC)c(OC)c1)S(=O)(=O)c1ccc(OC)c(OC)c1` [CDE-030], in assay [1], the “effect of pH on PAI-1 inhibition (in words)” value is “increased with increasing pH” and the “PAI-1 inhibitory efficacy (in words)” value is reported as “effective inhibitors of PAI-1”.

Consider `O=C(O[C@H]1CCCC[C@H]1OC(=O)c1cc(O)c(O)c(O)c1)c1cc(O)c(O)c(O)c1` [CDE-031], for which, in assay [1], the “effect of pH on PAI-1 inhibition (in words)” value is on record as “increased with increasing pH” and the “PAI-1 inhibitory efficacy (in words)” value is listed as “effective inhibitors of PAI-1”. Moreover, the Kd on PAI-1 is 31 ± 2 nM. In addition, the concentration for half-maximal inhibition (IC50) in assay [2] was 0.28 µM.

For `CCN(CCN(CC)S(=O)(=O)c1ccc(O)c(O)c1)S(=O)(=O)c1ccc(O)c(O)c1` [CDE-032], in assay [1], the “effect of pH on PAI-1 inhibition (in words)” value was “increased with increasing pH” and the “PAI-1 inhibitory efficacy (in words)” value is on record as “effective inhibitors of PAI-1”. Further, the IC50 in assay [2] worked out at 10.2 µM.

For `CCOC(=O)[C@H](Cc1ccc(O)c([N+](=O)[O-])c1)NC(=O)[C@H](Cc1ccc(O)c([N+](=O)[O-])c1)NC(=O)OC(C)(C)C` [CDE-033] (Boc-[Tyr(3-NO2)]-[Tyr(3-NO2)]-OEt), the IC50 in assay [2] came out at 246 µM.

Turning to `O=C(O[C@@H]1CCCC[C@H]1OC(=O)c1cc(O)c(O)c(O)c1)c1cc(O)c(O)c(O)c1` [CDE-034], the Kd on PAI-1 worked out at 67 ± 3 nM. In addition, in assay [2], the IC50 is 1.17 µM.

Regarding `CC(C)(C)OC(=O)N[C@@H](Cc1ccc(O)c([N+](=O)[O-])c1)C(=O)N[C@@H](Cc1ccc(O)c([N+](=O)[O-])c1)C(=O)O` [CDE-035] (Boc-[Tyr(3-NO2)]-[Tyr(3-NO2)]-OH), the IC50 in assay [2] was found to be 146 µM.

With `O=C(OCCOC(=O)c1cccc(OC(=O)c2cc(O)c(O)c(O)c2)c1)c1cccc(OC(=O)c2cc(O)c(O)c(O)c2)c1` [CDE-041], the IC50 in assay [2] was 47.9 µM.

`O=C(NCCNC(=O)c1cc(O)c(O)c(O)c1)c1cc(O)c(O)c(O)c1` [CDE-044]: in assay [2], the IC50 was 900 µM.

On to `O=C(OCCOC(=O)c1ccc(O)cc1O)c1ccc(O)cc1O` [CDE-051], for which the IC50 in assay [2] came to 28.7 µM.

With `O=C(c1cc(O)c(O)c(O)c1)N1CCN(C(=O)c2cc(O)c(O)c(O)c2)CC1` [CDE-055], the IC50 in assay [2] is 27.5 µM.

For the compound `O=C(Oc1ccccc1OC(=O)c1cc(O)c(O)c(O)c1)c1cc(O)c(O)c(O)c1` [CDE-056], at PAI-1, the Kd came to 51 ± 6 nM. The IC50 in assay [2] amounted to 2.96 µM.

Take `O=C(O[C@@H]1CCC[C@H](OC(=O)c2cc(O)c(O)c(O)c2)C1)c1cc(O)c(O)c(O)c1` [CDE-057]: the IC50 in assay [2] came to 195 µM.

In the case of `O=S(=O)(NNS(=O)(=O)c1ccc(O)c(O)c1)c1ccc(O)c(O)c1` [CDE-059], the IC50 against active mouse PAI-1 was 973 µM; in assay [2], 0.09 µM.

Turning to `O=C(NCCNC(=O)c1ccc(O)c([N+](=O)[O-])c1)c1ccc(O)c([N+](=O)[O-])c1` [CDE-060], the IC50 in assay [2] amounted to 236 µM.

As to `O=C(O[C@H]1CC[C@@H](OC(=O)c2cc(O)c(O)c(O)c2)CC1)c1cc(O)c(O)c(O)c1` [CDE-061], the IC50 in assay [2] was determined as 0.05 µM.

Consider `O=C(O[C@H]1CC[C@H](OC(=O)c2cc(O)c(O)c(O)c2)CC1)c1cc(O)c(O)c(O)c1` [CDE-062], for which the IC50 in assay [2] amounted to 332 µM.

With `COc1cc(C(=O)N(C)CCN(C)C(=O)c2cc(OC)c(O)c(OC)c2)cc(OC)c1O` [CDE-064], the IC50 in assay [2] came out at 2200 µM.

On to `COc1cc(C(=O)N2CCN(C(=O)c3cc(OC)c(O)c(OC)c3)CC2)cc(OC)c1O` [CDE-065], for which the 50% inhibitory concentration (IC50) in assay [2] is 423 µM.

Turning to `CC(C)(COC(=O)c1cc(O)c(O)c(O)c1)COC(=O)c1cc(O)c(O)c(O)c1` [CDE-067], the IC50 in assay [2] turned out to be 48.3 µM.

For the compound `CN(N(C)S(=O)(=O)c1ccc(O)c(O)c1)S(=O)(=O)c1ccc(O)c(O)c1` [CDE-068], the IC50 in assay [2] stood at 32.7 µM.

On to `COc1cc(C(=O)OCCOC(=O)c2cc(OC)c(O)c(OC)c2)cc(OC)c1O` [CDE-069], for which the IC50 in assay [2] stood at 562 µM.

On to `O=C(NCCCNC(=O)c1cc(O)c(O)c(O)c1)c1cc(O)c(O)c(O)c1` [CDE-070], for which the IC50 in assay [2] came out at 269 µM.

Regarding `O=S(=O)(NNS(=O)(=O)c1ccc(O)cc1)c1ccc(O)cc1` [CDE-072], in assay [2], the half-maximal inhibitory concentration (IC50) stood at 104 µM.

On to `O=S(=O)(c1ccc(O)c(O)c1)N1CCCCN1S(=O)(=O)c1ccc(O)c(O)c1` [CDE-074], for which, in assay [2], the IC50 was 1.71 µM.

On to `CC(C)(C)OC(=O)NCC(COC(=O)c1cc(O)c(O)c(O)c1)OC(=O)c1cc(O)c(O)c(O)c1` (stereo not drawn) [CDE-075], for which, in assay [2], the IC50 was 0.07 µM.

Consider `O=C(OCC(COC(=O)c1cc(O)c(O)c(O)c1)OC(=O)c1cc(O)c(O)c(O)c1)c1cc(O)c(O)c(O)c1` [CDE-082], for which the Kd at PAI-1 stood at 5.3 ± 0.2 nM.

In the case of `O=C(Oc1cc(O)cc2c1C[C@@H](OC(=O)c1cc(O)c(O)c(O)c1)[C@@H](c1cc(O)c(O)c(O)c1)O2)c1cc(O)c(O)c(O)c1` [epigallocatechin 3,5 digallate], in assay [3], the “screening hit: restoration of uPA activity” value is “positive hits”.

Consider `O=C(O)c1cc(O)c(O)c(O)c1` [gallic acid], for which the “effect of pH on PAI-1 inhibition (in words)” value in assay [1] is “increased with increasing pH to 8.5”. The “fold less active toward PAI-1 than tannic acid” value is recorded as “approximately 1000 fold” in assay [4] (FIG. 2) and “up to 4000 fold” in assay [4] (other data (not shown)).

For `Oc1c(Cl)cc(Cl)c(Cl)c1Cc1c(O)c(Cl)cc(Cl)c1Cl` [hexachlorophene], the “screening hit: restoration of β-trypsin activity” value in assay [5] was “demonstrate PAI-1 inhibitor activity”. Moreover, the “effect of pH on PAI-1 inhibition (in words)” value in assay [1] is “did not improve at pH 8.5 compared to pH 7.5”.

As usually defined, the IC50 is the concentration that inhibits the measured activity by half.

For the origin of these results see US9120744B2, “Plasminogen activator inhibitor-1 inhibitors and methods of use thereof to modulate lipid metabolism” (THE REGENTS OF THE UNIVERSITY OF MICHIGAN, priority 2007, dated 2015).
